Assay results from patent US6358885B1, “Substituted phenylheterocyclic herbicides” (Mississippi State University, priority 1992, dated 2002).

How the values were obtained:
[1] = system: rape; experiment: Test B preemergence/postemergence greenhouse plant response rating 0 to 10; assay type: in vivo, Brassica napus; details: 0 to 10 scale
In short: (§1)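 Both application timings were run together: seeds got compound preemergence, and established seedlings (two to eighteen cm) got it postemergence. Non-phytotoxic solvent carried the chemical. Ratings are visual, versus controls, at twelve to sixteen days.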

[2] = system: broadleaf signalgrass; experiment: Test G preemergence/postemergence greenhouse plant response rating 0 to 100; assay type: in vivo, Brachiaria plantaginea; details: 0 to 100 scale
In short: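 Scoring: visual injury at 13 to 21 days post-application, compared with untreated controls. Planting: one species per pot in greenhouse medium. Dosing: compound in non-phytotoxic solvent, within one day of sowing for preemergence or at 2–4 leaves for postemergence.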

[3] = system: cheatgrass; experiment: Test B preemergence/postemergence greenhouse plant response rating 0 to 10; assay type: in vivo, Bromus secalinus; details: for Plant response rating, Cheatgrass: 0 to 10 scale
In short: as §1

[4] = system: crabgrass; experiment: as above; assay type: in vivo, Digitaria spp.; details: for Plant response rating, Crabgrass: 0 to 10 scale
In short: as §1

[5] = system: barnyardgrass; experiment: as above; assay type: in vivo, Echinochloa crus-galli; details: for Plant response rating, Barnyardgrass: 0 to 10 scale
In short: as §1

[6] = system: morningglory; experiment: as above; assay type: in vivo, Ipomoea hederacea; details: 0 to 10 scale
In short: as §1

[7] = system: soybean; experiment: Test C preemergence/postemergence greenhouse plant response rating 0 to 100; assay type: in vivo, Glycine max; details: POSTEMERGENCE; for Plant response rating, Soybean: 62 g/ha, 0 to 100 scale
In short: (§2)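 Compounds in non-phytotoxic solvent went onto sandy loam before emergence (seeded one day earlier) or onto plants at the one-to-four leaf stage. Duck salad was treated via flood water (~2.5 cm, maintained) over silt loam.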

[8] = system: chickweed; experiment: Test B preemergence/postemergence greenhouse plant response rating 0 to 10; assay type: in vivo, Stellaria media; details: 0 to 10 scale
In short: as §1

[9] = system: lambsquarters; experiment: Test C preemergence/postemergence greenhouse plant response rating 0 to 100; assay type: in vivo, Chenopodium album; details: POSTEMERGENCE; for Plant response rating Lambsquarters: 62 g/ha, 0 to 100 scale
In short: as §2

[10] = system: corn; experiment: Test B preemergence/postemergence greenhouse plant response rating 0 to 10; assay type: in vivo, Zea mays; details: for Plant response rating, Corn: 0 to 10 scale
In short: as §1

[11] = system: barley; experiment: Test C preemergence/postemergence greenhouse plant response rating 0 to 100; assay type: in vivo, Hordeum vulgare; details: POSTEMERGENCE; for Plant response rating Barley Igri: 62 g/ha, 0 to 100 scale
In short: as §2

[12] = system: velvetleaf; experiment: Test B preemergence/postemergence greenhouse plant response rating 0 to 10; assay type: in vivo, Abutilon theophrasti; details: 0 to 10 scale
In short: as §1

[13] = system: giant foxtail; experiment: as above; assay type: in vivo, Setaria faberii; details: 0 to 10 scale
In short: as §1

[14] = system: morningglory; experiment: Test C preemergence/postemergence greenhouse plant response rating 0 to 100; assay type: in vivo, Ipomoea hederacea; details: POSTEMERGENCE; for Plant response rating, Morningglory: 62 g/ha, 0 to 100 scale
In short: as §2

CCCN1C(=O)COc2cc(F)c(-c3nn4c(c3Cl)CCCC4)cc21 [Compound 32]
10: Plant response rating, Rape ([1]; POSTEMERGENCE, Rate 50 g/ha) | Plant response rating, Morningglory ([6]; POSTEMERGENCE, Rate 10 g/ha) | Plant response rating, Morningglory ([6]; POSTEMERGENCE, Rate 50 g/ha) | Plant response rating, Chickweed ([8]; POSTEMERGENCE, Rate 10 g/ha) | Plant response rating, Velvetleaf ([12]; POSTEMERGENCE, Rate 10 g/ha) | Plant response rating, Velvetleaf ([12]; POSTEMERGENCE, Rate 50 g/ha) | Plant response rating, Velvetleaf ([12]; PREEMERGENCE, Rate 50 g/ha)
1: Plant response rating, Barnyardgrass ([5]; PREEMERGENCE, Rate 50 g/ha)
50: Plant response rating (0 to 100), Soybean ([7]; Rate 4 g/ha) | Plant response rating Barley Igri [11] | Plant response rating (0 to 100), Morningglory ([14]; Rate 1 g/ha)
90: Plant response rating, Soybean [7]
80: Plant response rating (0 to 100), Lambsquarters ([9]; Rate 4 g/ha)
0: Plant response rating, Brdlf Sgnlgrass ([2]; POSTEMERGENCE, Rate 125 g/ha) | Plant response rating, Brdlf Sgnlgrass ([2]; POSTEMERGENCE, Rate 250 g/ha) | Plant response rating, Brdlf Sgnlgrass ([2]; PREEMERGENCE, Rate 125 g/ha) | Plant response rating, Brdlf Sgnlgrass ([2]; PREEMERGENCE, Rate 250 g/ha) | Plant response rating, Barnyardgrass ([5]; PREEMERGENCE, Rate 10 g/ha) | Plant response rating, Chickweed ([8]; PREEMERGENCE, Rate 10 g/ha) | Plant response rating, Corn ([10]; PREEMERGENCE, Rate 50 g/ha)
20: Plant response rating (0 to 100), Soybean ([7]; Rate 1 g/ha) | Plant response rating (0 to 100), Barley Igri ([11]; Rate 1 g/ha)
4: Plant response rating, Cheatgrass ([3]; POSTEMERGENCE, Rate 10 g/ha) | Plant response rating (0 to 10 scale), Corn ([10]; POSTEMERGENCE, Rate 50 g/ha) | Plant response rating, Giant foxtail ([13]; POSTEMERGENCE, Rate 10 g/ha) | Plant response rating, Giant foxtail ([13]; PREEMERGENCE, Rate 50 g/ha)
70: Plant response rating (0 to 100), Soybean ([7]; Rate 16 g/ha) | Plant response rating (0 to 100), Lambsquarters ([9]; Rate 1 g/ha) | Plant response rating (0 to 100), Morningglory ([14]; Rate 4 g/ha)
3: Plant response rating, Crabgrass ([4]; POSTEMERGENCE, Rate 10 g/ha) | Plant response rating, Crabgrass ([4]; PREEMERGENCE, Rate 50 g/ha) | Plant response rating, Barnyardgrass ([5]; POSTEMERGENCE, Rate 10 g/ha) | Plant response rating, Corn ([10]; POSTEMERGENCE, Rate 10 g/ha)
6: Plant response rating, Rape ([1]; POSTEMERGENCE, Rate 10 g/ha)
30: Plant response rating (0 to 100), Barley Igri ([11]; Rate 4 g/ha) | Plant response rating (0 to 100), Barley Igri ([11]; Rate 16 g/ha)
100: Plant response rating Lambsquarters [9] | Plant response rating (0 to 100), Lambsquarters ([9]; Rate 16 g/ha) | Plant response rating, Morningglory [14] | Plant response rating (0 to 100), Morningglory ([14]; Rate 16 g/ha)
5: Plant response rating (0 to 10 scale), Cheatgrass ([3]; POSTEMERGENCE, Rate 50 g/ha) | Plant response rating, Cheatgrass ([3]; PREEMERGENCE, Rate 50 g/ha) | Plant response rating (0 to 10 scale), Crabgrass ([4]; POSTEMERGENCE, Rate 50 g/ha) | Plant response rating (0 to 10 scale), Barnyardgrass ([5]; POSTEMERGENCE, Rate 50 g/ha) | Plant response rating, Giant foxtail ([13]; POSTEMERGENCE, Rate 50 g/ha)
2: Plant response rating, Rape ([1]; PREEMERGENCE, Rate 50 g/ha) | Plant response rating, Cheatgrass ([3]; PREEMERGENCE, Rate 10 g/ha) | Plant response rating, Crabgrass ([4]; PREEMERGENCE, Rate 10 g/ha) | Plant response rating, Morningglory ([6]; PREEMERGENCE, Rate 50 g/ha) | Plant response rating, Giant foxtail ([13]; PREEMERGENCE, Rate 10 g/ha)

C=CCN1C(=O)COc2cc(F)c(-c3nn4c(c3Cl)CCCC4)cc21 [Compound 33]
50: Plant response rating (0 to 100), Lambsquarters ([9]; Rate 1 g/ha) | Plant response rating (0 to 100), Barley Igri ([11]; Rate 16 g/ha) | Plant response rating (0 to 100), Morningglory ([14]; Rate 1 g/ha)
6: Plant response rating, Cheatgrass ([3]; PREEMERGENCE, Rate 50 g/ha) | Plant response rating, Crabgrass ([4]; PREEMERGENCE, Rate 50 g/ha)
9: Plant response rating, Morningglory ([6]; POSTEMERGENCE, Rate 10 g/ha) | Plant response rating, Velvetleaf ([12]; POSTEMERGENCE, Rate 50 g/ha) | Plant response rating, Velvetleaf ([12]; PREEMERGENCE, Rate 50 g/ha)
40: Plant response rating (0 to 100), Soybean ([7]; Rate 4 g/ha) | Plant response rating (0 to 100), Barley Igri ([11]; Rate 4 g/ha)
7: Plant response rating, Barnyardgrass ([5]; POSTEMERGENCE, Rate 50 g/ha) | Plant response rating, Giant foxtail ([13]; PREEMERGENCE, Rate 50 g/ha)
70: Plant response rating (0 to 100), Lambsquarters ([9]; Rate 4 g/ha) | Plant response rating (0 to 100), Morningglory ([14]; Rate 4 g/ha)
20: Plant response rating (0 to 100), Barley Igri ([11]; Rate 1 g/ha)
100: Plant response rating, Soybean [7] | Plant response rating Lambsquarters [9] | Plant response rating, Morningglory [14]
80: Plant response rating (0 to 100), Soybean ([7]; Rate 16 g/ha) | Plant response rating (0 to 100), Lambsquarters ([9]; Rate 16 g/ha)
0: Plant response rating, Brdlf Sgnlgrass ([2]; POSTEMERGENCE, Rate 125 g/ha) | Plant response rating, Brdlf Sgnlgrass ([2]; POSTEMERGENCE, Rate 250 g/ha) | Plant response rating, Brdlf Sgnlgrass ([2]; PREEMERGENCE, Rate 125 g/ha) | Plant response rating, Brdlf Sgnlgrass ([2]; PREEMERGENCE, Rate 250 g/ha) | Plant response rating, Corn ([10]; PREEMERGENCE, Rate 50 g/ha)
10: Plant response rating, Rape ([1]; POSTEMERGENCE, Rate 10 g/ha) | Plant response rating, Rape ([1]; POSTEMERGENCE, Rate 50 g/ha) | Plant response rating, Morningglory ([6]; POSTEMERGENCE, Rate 50 g/ha) | Plant response rating, Morningglory ([6]; PREEMERGENCE, Rate 50 g/ha) | Plant response rating, Chickweed ([8]; POSTEMERGENCE, Rate 10 g/ha) | Plant response rating, Chickweed ([8]; POSTEMERGENCE, Rate 50 g/ha) | Plant response rating, Velvetleaf ([12]; POSTEMERGENCE, Rate 10 g/ha)
4: Plant response rating, Cheatgrass ([3]; POSTEMERGENCE, Rate 10 g/ha) | Plant response rating, Cheatgrass ([3]; POSTEMERGENCE, Rate 50 g/ha) | Plant response rating, Barnyardgrass ([5]; POSTEMERGENCE, Rate 10 g/ha) | Plant response rating, Corn ([10]; POSTEMERGENCE, Rate 50 g/ha) | Plant response rating, Giant foxtail ([13]; POSTEMERGENCE, Rate 10 g/ha) | Plant response rating, Giant foxtail ([13]; POSTEMERGENCE, Rate 50 g/ha)
60: Plant response rating Barley Igri [11]
3: Plant response rating, Cheatgrass ([3]; PREEMERGENCE, Rate 10 g/ha) | Plant response rating, Crabgrass ([4]; POSTEMERGENCE, Rate 10 g/ha) | Plant response rating, Barnyardgrass ([5]; PREEMERGENCE, Rate 50 g/ha) | Plant response rating, Corn ([10]; POSTEMERGENCE, Rate 10 g/ha)
2: Plant response rating, Crabgrass ([4]; PREEMERGENCE, Rate 10 g/ha) | Plant response rating, Barnyardgrass ([5]; PREEMERGENCE, Rate 10 g/ha) | Plant response rating, Giant foxtail ([13]; PREEMERGENCE, Rate 10 g/ha)
30: Plant response rating (0 to 100), Soybean ([7]; Rate 1 g/ha)
5: Plant response rating, Rape ([1]; PREEMERGENCE, Rate 50 g/ha) | Plant response rating, Crabgrass ([4]; POSTEMERGENCE, Rate 50 g/ha)
90: Plant response rating (0 to 100), Morningglory ([14]; Rate 16 g/ha)
